The values below come from a melting point compilation (Tetko et al.; mined from patent text by program, amines drawn as free bases though some values may be those of a salt).

Consider `CC(=O)C(=Cc1c(-c2ccccc2)nc2sc(C)nn12)C(=O)N(C)C`, for which the melting point lay within 185 to 187 °C. Then `Cc1c(C#N)c(N)n(-c2ccccc2Br)c1C`, with 233 to 235 °C; and `Cc1ccc(Sc2cc(C#N)ccc2C#N)cc1`, with 155 °C.

On to `CCCCOCCCn1c(CCCC)nc2c(N)nc3cccnc3c21`, for which the melting point lay in the range of 101 to 102 °C. For `C[C@@H](NC(=O)c1c[nH]c2ncc(-c3nn(C)c4cccnc34)nc12)C(=O)N1CC(C#N)C1`, the melting point was 194 to 198 °C. The same measure for `CC(=O)NC1(C)CCN(Cc2ccccc2)C1` (centres undefined): 105 to 106 °C; for `CC(C)Sc1c(-c2ccc(S(C)(=O)=O)cc2)cnn(CC(F)(F)F)c1=O`: 165 to 167 °C.

With `Cn1cnc2cc(C(=O)NC3CC3)c(NC(=O)c3cc(C(F)(F)F)nn3-c3ncccc3Cl)c(Cl)c21`, the melting point fell in the range of 148 to 151 °C. Take `O=C(O)CCc1cnoc1-c1cccc(Cl)c1`: the melting point lay within 110 to 111 °C.

`CN1CCCC1=C(C#N)c1ccc(N)cc1` gave a melting point of 116 to 118 °C. Then `COc1cc2ncnc(N3CCC(CCN4C=CC=NS4(=O)=O)CC3)c2cc1OC`, with 176 to 178 °C; and `CC(C)(C)C(NC(=O)c1cccc(-c2ccco2)c1)Nc1c(Nc2cccnc2)c(=O)c1=O` (centres undefined), with 251 to 252 °C; and `CN(Cc1ccccc1)CC1Nc2ccccc2Cn2cccc21` (centres undefined), with 147 to 149 °C.

Regarding `COc1ccc(CSc2nnc(-c3ccnc(N)c3)o2)cc1F`, the melting point was 166 to 167 °C. The compound `O=C(Nc1cccnn1)N1CCN(c2cncc(-c3ccc(F)cc3F)c2)CC1` registered a melting point of 172 to 173 °C. As to `Cc1cc(C)n(C(=O)CNS(=O)(=O)c2ccc(C3CCCCC3)cc2)n1`, the melting point came out at 138 °C. The same measure for `O=C(O)[C@@]1(O)C[C@@H](O)[C@H](O)C2=C1CC(Cc1ccccc1)(Cc1ccccc1)S2`: 209 to 212 °C; for `CCOC(=O)c1cc(-c2ccccn2)[nH]n1`: 103 to 105 °C; for `CCOC(=O)CC1CC2C(CCC3(C)C(=O)CCC23)c2ccc(O)cc21` (centres undefined): 138 °C. Then `CC(C)Nc1nccc(C#C[Si](C)(C)C)n1`, with 93 to 94 °C. `COC(=O)c1nsnc1Br` came in with a melting point of 57 to 58 °C. Then `CNC(CC(=O)O)c1ccccc1` (centres undefined), with 167 to 168 °C; and `CS(=O)(=O)N1CCC(=C2c3ccccc3CCc3cccnc32)CC1`, with 223 to 224 °C.

In turn, `CC(Nc1ccc([N+](=O)[O-])cc1)c1ccccc1` (centres undefined) gave a melting point of 95 to 96 °C.

Compound `Cc1c(C)c(N2CCN(c3ccc(F)cc3)CC2)c(C)c2c1OC(C)(C)C2` displayed a melting point of 175 to 177 °C.

For the compound `CCCCCC(C)C(C)c1cc(O)c2c(c1)OC(C)(C)C1=C2CN(CC(=O)NC(N)=O)CC1` (centres undefined), the melting point lay within 131 to 133 °C. Then `COc1ccc(CCNc2nc(NCc3cc(OC)cc(OC)c3)c3cccnc3n2)cc1`, with 88 to 89 °C; and `CC(C(=O)O)N1CCNC(C(=O)O)C1` (centres undefined), with 173 to 174 °C. Then `CC1OC(=O)C(c2ccccc2)OC1=O` (centres undefined), with 153 to 156 °C. The same measure for `COC(=O)COc1ncccc1Oc1cc(N2C(=O)C=C(C(F)(F)F)CC2=O)c(F)cc1Cl`: 75.3 °C; for `C=C(C)C(=O)Oc1c(C(C)c2cc(C(C)(C)CC)cc(C(C)(C)CC)c2O)cc(C(C)(C)CC)cc1C(C)(C)CC` (centres undefined): 103 to 105 °C; for `CN(C)CC(O)C(c1ccccc1)c1ccccc1` (centres undefined): 72 to 73 °C. The compound `CS(=O)(=O)NC1CCCOc2ccccc21` (centres undefined) showed a melting point of 105 to 106 °C. Take `FC(F)(F)COc1ccccc1N1CCNCC1`: the melting point was 107 to 108 °C. As to `O=C(c1ccc(O)cc1)c1ccc(OCCOCCO)cc1`, the melting point was 126 to 127 °C. The same measure for `CNC(=O)c1cc2n(n1)-c1ccc(Cl)cc1C(c1ccccc1)=NC2`: 170 to 172 °C; for `CCCCCCCCNC(=O)ON=C(C1=CC(=O)C(C)(C2CCCCC2)O1)c1ccccc1` (centres undefined): 85 to 87 °C.

`Cn1ncc2c1-c1c(Oc3ccc(OCc4ccc5ccccc5n4)cc3)sc(C(=O)O)c1CC2` showed a melting point of 214 to 215 °C. The same measure for `COc1ccc(C(C)(O)c2cccc(OCc3nc(-c4ccccc4)oc3C)c2)c(OCC(=O)O)c1` (centres undefined): 148 to 149 °C; for `Cc1cc(NC(=O)CN(CC(=O)O)CC(=O)O)ccc1Br`: 206 to 209 °C. The compound `CC(C)(C)C1=C(c2cc3cc(O)ccc3o2)OCC1(C)C` came in with a melting point of 129 to 130 °C. Turning to `O=C(O)c1cc2nc3n(c2cc1Cl)CCC3`, the melting point was greater than 270 °C. Turning to `CC(C)C(=O)N(O)C(C)c1cc2ccccc2s1` (centres undefined), the melting point was 132 to 138 °C. The same measure for `Cc1ccc(S(=O)(=O)N(C)c2ccc(S(C)(=O)=O)cc2C#N)cc1`: 179 to 180 °C. The same measure for `CCc1oc2ccccc2c1C(=O)c1c(Br)cc(Br)c(O)c1Br`: 153 to 154 °C; for `CCc1nc2c(C)cc(C)nc2n1Cc1ccc(C(c2ccc(C)cc2)C(C(=O)O)C(=O)O)cc1` (centres undefined): 140 to 141 °C.

On to `c1ccc(C(c2ccccc2)N2CCN(Cc3cscn3)CC2)cc1`, for which the melting point lay in the range of 114 to 116 °C. Then `CCn1c2ccccc2c2cc(C=C(c3ccccc3)c3ccccc3)ccc21`, with 145 to 146 °C; and `CC(=O)OC1CC2=CC=C3C4CCC(C(C)C=CC(C)C(C)C)C4(C)CCC3C2(C)C(OC(C)=O)C1` (centres undefined), with 128 to 130 °C.

In the case of `OC(c1ccc(Cl)cc1)c1ccccc1Cl` (centres undefined), the melting point was 68 to 70 °C.

On to `COc1cccc(/C(=C\C=C\C(=O)NCCCCc2cccnc2)c2ccccc2)c1`, for which the melting point was in the range of 89 to 91 °C. `COc1cc(C(=O)O)ccc1Cc1cccc2ccc(CCCC(=O)N(C)C)cc12` gave a melting point of 231 to 232 °C. Then `CC1(C)Oc2cc([N+](=O)[O-])ccc2[C@@H](N2Cc3ccccc3C2=O)[C@@H]1O` (relative stereo), with 249 to 250 °C; and `CCOC(=O)c1cnc2c(c1O)CC(C)CC2` (centres undefined), with 228 to 231 °C.

With `CCOCc1nc2c(N)nc3cc(Br)ccc3c2n1CC1CCCCN1C(=O)OC(C)(C)C` (centres undefined), the melting point lay within 190 to 192 °C.

`COC1(OC)CCN(c2nc3c(cc2F)C=C(C(=O)O)CN3c2ccc(F)cc2F)C1` came in with a melting point of 205 to 206 °C. Then `CC(C)CC(=O)Nc1cc(-c2ccnc3c(C(=O)c4cccs4)cnn23)cs1`, with 234 to 235 °C; and `CC(C)n1nc(-c2c(F)nc(N)nc2-c2ccccc2)ccc1=O`, with 231 to 232 °C. Then `c1ccc(P(CC[Si](c2ccccc2)(c2ccccc2)c2ccccc2)c2ccccc2)cc1`, with 128 to 131 °C; and `O=C1CCC(O)=C1Cc1ccc(Br)cc1`, with 199 to 201 °C. The same measure for `COc1cc(Nc2nccc(-c3ccc(CO)cc3)n2)cc(OC)c1OC`: 171 to 172 °C; for `COC(=O)C1CC(C#N)(c2ccc(OC)c3c2OCCO3)CCC1=O` (centres undefined): 129 to 132 °C; for `CC(=O)NCc1ccc2c(c1)N(C1CCN(CCc3ccccc3F)CC1)CC2`: 160 to 161 °C. Regarding `CSC(=O)C(C)(C)NC(=O)c1cc2c(n(CC3CCCCC3)c1=O)CCCCCC2`, the melting point lay in the range of 196 to 198 °C. `NCc1c(-c2ccc(O)cc2)nnn1-c1ccc(C(F)(F)F)cc1Cl` registered a melting point of 96.5 to 98.9 °C.

On to `Cc1ccnc(C(=O)c2[nH]c3cc(F)ccc3c2CC(=O)O)c1`, for which the melting point came out at 208 °C. `Cn1c(COc2ccc(CC3SC(=O)NC3=O)cc2)nc2cc(Br)cnc21` (centres undefined): the melting point lay in the range of 204 to 205 °C. The same measure for `CC(=O)OC1CSC(Oc2ccc(-c3cncnc3)nc2)C(OC(C)=O)C1OC(C)=O` (centres undefined): 215 °C; for `Cc1c(N)nc(=S)n(C)c1N`: 178 °C; for `Cc1cccc(NC(=O)NCC(=O)N(CC(=O)O)c2ccccc2)c1`: 188 °C. `COC(=O)c1ccc(CCc2nc(-c3ccccc3)c(C)s2)cc1` returned a melting point of 52 to 53 °C.

The compound `COc1ccc(C2=NNC(=O)CS2)c(OC)c1` gave a melting point of 162 to 164 °C. The same measure for `CCCCc1oc2ccccc2c1C(=O)N(C)Cc1ccc(-c2ccc(OCC(=O)O)c(Br)c2)cc1`: 72 to 78 °C. The same measure for `Cc1cc(OCCN2CCCCC2)ccc1NC(=O)NC1C2CC3CC(C2)CC1C3` (centres undefined): 196 °C. Then `O=C(NN1CCCNC1=O)OCc1ccccc1`, with 161 to 163 °C; and `C[C@]1(CN2CCN(c3ccc(C(=O)O)cc3)CC2)Cn2cc([N+](=O)[O-])nc2O1`, with 248 to 252 °C. Take `O=C(C(=O)N(CCN1CCOCC1)S(=O)(=O)C(F)(F)F)N(CCN1CCOCC1)S(=O)(=O)C(F)(F)F`: the melting point was 62 to 64 °C.

`COc1nc(Oc2ccccc2C(=O)O)nc(N(C)C)n1` displayed a melting point of 148 to 149 °C.

`CCCCN(Cc1ccc(-c2ccccc2-c2nc(=O)o[nH]2)cc1)c1ncncc1C(=O)OCC` showed a melting point of 65 to 69 °C. Then `CCOc1nn(-c2ccc(C(F)(F)F)cn2)cc1CCCOc1cc(CC(=O)O)ccc1OC`, with 142 to 143 °C.

Turning to `COC(=O)C(=O)c1cc[nH]c1`, the melting point stood at 112 °C. The same measure for `CC(C)(C)OC(=O)N1CCC(Oc2ccc(-c3cn[nH]c(=O)c3)cc2)CC1`: 222 to 223 °C; for `CC(NCCCO)c1ccc(C2CCC(N(C)C(=O)c3ccc(Cl)cc3)CC2)cc1` (centres undefined): 118 to 120 °C. Then `CCCN(CCC)C1CNc2c(cc(Br)cc2[N+](=O)[O-])C1` (centres undefined), with 88 to 91 °C. In turn, `CC(=O)N1CCCCc2ccc(C(=O)CCC3CCN(Cc4ccccc4)CC3)cc21` registered a melting point of 115 to 116 °C. The same measure for `N=C(NCCCn1cc(C2=CC(=O)NC2=O)c2ccccc21)c1ccc(O)cc1`: greater than 300 °C; for `CC(C)(C)c1ccc(C(=O)N[C@H]2CC[C@H](CCN3CCN(c4nccc5c4OCC5)CC3)CC2)cc1`: 183 °C.

Regarding `NNCCCS(=O)(=O)O`, the melting point is 147 to 148 °C. The same measure for `CCOCc1nc2c(N)nc3cc(-c4cccnc4)ccc3c2n1CC1CCCCN1S(C)(=O)=O` (centres undefined): 152 to 154 °C.

One may read the melting point as the temperature, or range, at which the solid turns liquid.
